According to ChEMBL document CHEMBL5380875, “Discovery of a Potent and Oral Available Complex I OXPHOS Inhibitor That Abrogates Tumor Growth and Circumvents MEKi Resistance” (J Med Chem, 2023):
Active and inactive are the calls of the source. The calls are words filed in the database; no cut-off is given here.

Tests used:
[1] = Clearance in ICR mouse at 1 mg/kg, iv measured for 24 hrs by LC-MS/MS analysis; assay type: ADME, organism-based; details: in vivo
NCI-H441 [2] = assay: Inhibition of mitochondrial respiration in human NCI-H441 cells with high-OXPHOS assessed as reduction in basal oxygen consumption rate incubated for 12 hrs by seahorse XF96 flux analyzer; assay type: functional, cell-based; details: dose 50-200 nM
NCI-H460 [3] = assay: Induction of apoptosis in human NCI-H460 cells with high-OXPHOS harboring KRAS Q61H mutant assessed as early apoptotic cells at 20 nM incubated for 72 hrs by Annexin V-FITC/propidium iodide staining based flow cytometry analysis (reference value: 1.95%); assay type: functional
NCI-H441 [4] = assay: Antiproliferative activity against human NCI-H441 cells with high-OXPHOS assessed as reduction in cell viability incubated for 5 days by CellTiter 96 cell proliferation assay; assay type: functional, cell-based; details: NCI-H441, 120 h
[5] = AUC (0 to 24 hrs) in ICR mouse at 1 mg/kg, iv measured for 24 hrs by LC-MS/MS analysis; assay type: ADME, organism-based; design: time 24 hrs, dose 1 mg/kg, route iv; details: in vivo
NCI-H460 [6] = assay: Induction of apoptosis in human NCI-H460 cells with high-OXPHOS harboring KRAS Q61H mutant assessed as late apoptotic cells at 20 nM incubated for 72 hrs in presence of trametinib by Annexin V-FITC/propidium iodide staining based flow cytometry analysis (reference value: 5.68%); assay type: functional
[7] = Cytotoxicity against human MRC5 cells assessed as reduction in cell viability incubated for 5 days by CellTiter 96 cell proliferation assay; assay type: toxicity, cell-based
NCI-H460 [8] = assay: Inhibition of mitochondrial respiration in human NCI-H460 cells with high-OXPHOS assessed as reduction in spare oxygen consumption rate capacity incubated for 12 hrs by seahorse XF96 flux analyzer; assay type: functional, cell-based; details: dose 50-200 nM
Cytochrome P450 2D6 = Cytochrome P450 2D6 (Homo sapiens, UniProt P10635); assay: Inhibition of CYP2D6 in human liver microsomes; assay type: ADME, Microsome
Chain of Cytochrome P450 2D6 (P10635 whole entry): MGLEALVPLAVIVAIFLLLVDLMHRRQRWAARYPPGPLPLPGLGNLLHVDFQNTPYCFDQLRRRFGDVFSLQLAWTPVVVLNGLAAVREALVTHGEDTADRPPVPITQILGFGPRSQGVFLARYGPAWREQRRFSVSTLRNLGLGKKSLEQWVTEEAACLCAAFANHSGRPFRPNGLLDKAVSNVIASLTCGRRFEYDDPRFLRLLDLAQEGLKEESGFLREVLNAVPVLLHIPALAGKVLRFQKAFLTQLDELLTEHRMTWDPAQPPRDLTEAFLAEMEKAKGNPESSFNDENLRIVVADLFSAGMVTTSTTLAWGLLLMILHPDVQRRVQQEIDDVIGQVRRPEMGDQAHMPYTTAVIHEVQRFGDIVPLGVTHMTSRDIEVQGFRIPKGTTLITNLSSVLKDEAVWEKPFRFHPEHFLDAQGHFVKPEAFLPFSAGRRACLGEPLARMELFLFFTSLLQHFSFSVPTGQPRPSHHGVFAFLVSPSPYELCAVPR

NCI-H460 [9] = assay: Inhibition of colony formation in human NCI-H460 cells with high-OXPHOS harboring KRAS Q61H mutant incubated for 10 to 14 days in presence of trametinib by crystal violet staining based analysis; assay type: functional, cell-based; details: time 10-14 day
A549 [10] = assay: Inhibition of colony formation in human Trametinib-resistant A549 cells with high-OXPHOS incubated for 7 days by crystal violet staining based analysis; assay type: functional, cell-based; details: dose 25-100 nM, time 7.0 day
A549 [11] = assay: Induction of apoptosis in human Trametinib-resistant A549 cells with high-OXPHOS harboring KRAS G12S mutant assessed as early apoptotic cells at 20 nM incubated for 72 hrs by Annexin V-FITC/propidium iodide staining based flow cytometry analysis (reference value: 4.31%); assay type: functional
[12] = Toxicity in mouse xenografted with human NCI-H460 cells with high-OXPHOS assessed as pathological changes in liver at 30 mg/kg, po bid administered for 18 days by H and E staining based analysis; assay type: organism-based; details: in vivo, 432 h, time 18 day
[13] = Cytotoxicity against human HPNE cells assessed as reduction in cell viability incubated for 5 days by CellTiter 96 cell proliferation assay; assay type: toxicity, cell-based
A549 [14] = assay: Potentiation of trametinib-induced cytotoxicity against human Trametinib-resistant A549 cells with high-OXPHOS harboring KRAS G12S mutant assessed as reduction in cell viability at 10 to 20 uM incubated for 72 hrs by CellTiter 96 cell proliferation assay; assay type: functional, cell-based; details: dose 10-20 µM
NCI-H441 [15] = assay: Inhibition of mitochondrial respiration in human NCI-H441 cells with high-OXPHOS assessed as reduction in maximal oxygen consumption rate incubated for 12 hrs by seahorse XF96 flux analyzer; assay type: functional, cell-based; details: dose 50-200 nM
[16] = Cmax in ICR mouse at 1 mg/kg, iv measured for 24 hrs by LC-MS/MS analysis; assay type: ADME, organism-based; design: dose 1 mg/kg, time 24 hrs, route iv; details: in vivo
A549 [17] = assay: Inhibition of colony formation in human Trametinib-resistant A549 cells with high-OXPHOS harboring KRAS G12S mutant incubated for 10 to 14 days in presence of trametinib by crystal violet staining based analysis; assay type: functional, cell-based; details: time 10-14 day
NCI-H441 [18] = assay: Induction of apoptosis in human NCI-H441 cells with high-OXPHOS assessed as late apoptotic cells at 30 nM incubated for 48 hrs by Annexin V-FITC/propidium iodide staining based flow cytometry analysis (reference value: 9.27%); assay type: functional
NCI-H441 [19] = assay: Induction of apoptosis in human NCI-H441 cells with high-OXPHOS assessed as early apoptotic cells at 30 nM incubated for 48 hrs by Annexin V-FITC/propidium iodide staining based flow cytometry analysis (reference value: 1.67%); assay type: functional
[20] = Toxicity in mouse xenografted with human NCI-H460 cells with high-OXPHOS assessed as reduction in serum creatinine level at 30 mg/kg, po bid administered for 18 days; assay type: organism-based; details: in vivo, 432 h, time 18 day
Cytochrome P450 1A2 = target: T1, Cytochrome P450 1A2 (Homo sapiens, UniProt P05177); assay: Inhibition of CYP1A2 in human liver microsomes; assay type: ADME, Microsome
T1 sequence (P05177 whole entry): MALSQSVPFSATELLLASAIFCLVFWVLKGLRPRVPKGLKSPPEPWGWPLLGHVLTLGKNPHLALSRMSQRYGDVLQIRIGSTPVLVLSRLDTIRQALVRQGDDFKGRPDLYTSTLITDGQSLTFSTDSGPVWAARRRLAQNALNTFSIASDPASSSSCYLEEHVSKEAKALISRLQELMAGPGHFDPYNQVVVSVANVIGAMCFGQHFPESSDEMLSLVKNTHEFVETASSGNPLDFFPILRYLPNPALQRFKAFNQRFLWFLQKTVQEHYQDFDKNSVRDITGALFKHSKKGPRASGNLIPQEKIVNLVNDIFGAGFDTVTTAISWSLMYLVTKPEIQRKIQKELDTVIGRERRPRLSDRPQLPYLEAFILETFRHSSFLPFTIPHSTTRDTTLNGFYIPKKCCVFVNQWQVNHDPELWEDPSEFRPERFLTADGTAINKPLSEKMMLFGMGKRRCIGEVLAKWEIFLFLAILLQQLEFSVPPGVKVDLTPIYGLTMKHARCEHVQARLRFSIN

NCI-H460 [21] = assay: Induction of apoptosis in human NCI-H460 cells with high-OXPHOS assessed as early apoptotic cells at 30 nM incubated for 48 hrs by Annexin V-FITC/propidium iodide staining based flow cytometry analysis (reference value: 3.55%); assay type: functional
NCI-H460 [22] = assay: Antiproliferative activity against human NCI-H460 cells with high-OXPHOS assessed as reduction in cell viability incubated for 5 days by CellTiter 96 cell proliferation assay; assay type: functional, cell-based; details: NCI-H460, 120 h
[23] = MRT (0 to 24 hrs) in ICR mouse at 10 mg/kg, po measured for 24 hrs by LC-MS/MS analysis; assay type: ADME, organism-based; details: in vivo
A549 [24] = assay: Antiproliferative activity against human Trametinib-resistant A549 cells with high-OXPHOS assessed as reduction in cell viability incubated for 5 days by CellTiter 96 cell proliferation assay; assay type: functional, cell-based; details: A549, 120 h
[25] = Toxicity in mouse xenografted with human NCI-H460 cells with high-OXPHOS assessed as pathological changes in lung at 30 mg/kg, po bid administered for 18 days by H and E staining based analysis; assay type: organism-based; details: in vivo, 432 h, time 18 day
[26] = AUC (0 to 24 hrs) in ICR mouse at 10 mg/kg, po measured for 24 hrs by LC-MS/MS analysis; assay type: ADME, organism-based; design: time 24 hrs, dose 10 mg/kg, route po; details: in vivo
[27] = Toxicity in mouse xenografted with human NCI-H460 cells with high-OXPHOS assessed as reduction in serum BUN level at 30 mg/kg, po bid administered for 18 days; assay type: organism-based; details: in vivo, 432 h, time 18 day

clearance [1]: 46.6 mL/min/kg
IC50 (NCI-H441 [4]): 29.7 nM
AUC(0-t) at 24 h [5]: 337 ng·h/mL
IC50 (Cytochrome P450 2D6): > 50000 nM
Cmax [16]: 425 ng/mL
IC50 (Cytochrome P450 1A2): > 50000 nM
IC50 (NCI-H460 [22]): 5 nM
MRT last at 24 h [23]: 3 h
IC50 (A549 [24]): 15.1 nM
AUC(0-t) at 24 h [26]: 2170 ng·h/mL
SMILES: Cc1c(C(=O)N2CCN(Cc3ccc(OCC(F)(F)F)cc3)CC2)nnn1Cc1ccc(C(=O)Nc2ccc(C(F)(F)F)cc2)nc1
inhibition (NCI-H441 [2]): Dose-Dependent Effect
Activity (NCI-H460 [3]): 2.87%
Activity (NCI-H460 [6]): 34.1%
IC50 at 5 days [7]: > 10000 nM
inhibition (NCI-H460 [8]): Dose-Dependent Effect
inhibition (NCI-H460 [9]): Active
inhibition (A549 [10]): Dose-Dependent Effect
Activity (A549 [11]): 8.57%
Activity [12]: Non-Toxic
IC50 at 5 days [13]: > 10000 nM
Activity (A549 [14]): Active
inhibition (NCI-H441 [15]): Dose-Dependent Effect
inhibition (A549 [17]): Active
Activity (NCI-H441 [18]): 30.9%
Activity (NCI-H441 [19]): 7.88%
Activity [20]: Non-Toxic
Activity (NCI-H460 [21]): 7.08%
Activity [25]: Non-Toxic
Activity [27]: Non-Toxic
